In paper PMC5768637, “In Vitro and in Silico Evidence of Phosphatase Diversity in the Biomineralizing Bacterium Ramlibacter tataouinensis” (Frontiers in Microbiology, 2018):

Legend:
[1] = molecular target: T1, Rta PhoX1 (Ramlibacter tataouinensis, UniProt F5Y472); assay: p-nitrophenol release at […] nm, total soluble protein of expressing E. coli; assay type: biochemical; conditions: 50 mM Tris pH 8, 5 mM CaCl2, 5 mM MgCl2, 0.6 mM substrate
T1 construct: gene Rta_14460; codon-optimised synthetic gene in pET-22b (MscI/BamHI), E. coli BL21(DE3); total soluble protein extract; precursor 643 aa, predicted Tat signal 51 aa; no precursor form seen on SDS-PAGE
T1 sequence (F5Y472 52-643): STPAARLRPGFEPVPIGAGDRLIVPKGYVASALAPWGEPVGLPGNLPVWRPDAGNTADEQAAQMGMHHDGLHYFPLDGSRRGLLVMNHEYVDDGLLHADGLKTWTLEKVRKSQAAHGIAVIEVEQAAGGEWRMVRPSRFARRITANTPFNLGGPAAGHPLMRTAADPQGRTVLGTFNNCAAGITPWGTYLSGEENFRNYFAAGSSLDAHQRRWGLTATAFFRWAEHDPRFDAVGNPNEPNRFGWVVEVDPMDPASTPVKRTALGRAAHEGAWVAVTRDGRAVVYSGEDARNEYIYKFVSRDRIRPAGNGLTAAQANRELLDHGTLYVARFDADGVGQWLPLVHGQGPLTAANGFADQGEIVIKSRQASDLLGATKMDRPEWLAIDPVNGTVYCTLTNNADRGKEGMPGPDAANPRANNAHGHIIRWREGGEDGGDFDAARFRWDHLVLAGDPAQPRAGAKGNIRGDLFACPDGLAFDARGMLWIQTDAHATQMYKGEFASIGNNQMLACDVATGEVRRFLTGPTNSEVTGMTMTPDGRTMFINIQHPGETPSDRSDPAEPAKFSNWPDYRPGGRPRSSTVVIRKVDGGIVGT

[2] = molecular target: T2, Rta PhoD (Ramlibacter tataouinensis, UniProt F5XVP7); assay: as above; assay type: biochemical; conditions: 50 mM Tris pH 8, 5 mM CaCl2, 5 mM MgCl2, 0.6 mM substrate
T2 construct: codon-optimised synthetic gene in pET-22b (MscI/BamHI), E. coli BL21(DE3); total soluble protein extract; precursor 530 aa, predicted Tat signal 31 aa; no precursor form seen on SDS-PAGE
T2 sequence (F5XVP7 32-530): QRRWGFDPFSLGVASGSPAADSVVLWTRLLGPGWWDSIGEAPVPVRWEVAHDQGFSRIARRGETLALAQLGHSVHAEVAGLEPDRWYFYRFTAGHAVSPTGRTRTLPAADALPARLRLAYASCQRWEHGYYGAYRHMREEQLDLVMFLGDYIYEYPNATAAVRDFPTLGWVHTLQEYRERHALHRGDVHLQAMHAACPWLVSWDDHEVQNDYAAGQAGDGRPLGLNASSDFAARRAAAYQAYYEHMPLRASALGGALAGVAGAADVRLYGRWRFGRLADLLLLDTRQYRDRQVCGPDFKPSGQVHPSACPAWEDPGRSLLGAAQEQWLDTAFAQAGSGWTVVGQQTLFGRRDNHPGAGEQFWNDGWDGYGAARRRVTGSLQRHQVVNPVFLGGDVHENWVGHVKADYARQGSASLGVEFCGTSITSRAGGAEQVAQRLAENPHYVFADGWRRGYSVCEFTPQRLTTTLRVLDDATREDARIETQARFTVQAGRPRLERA

Row | Structure (SMILES) | p-nitrophenol release at 405 nm, total soluble protein of expressing E. coli [1] | p-nitrophenol release at 405 nm, total soluble protein of expressing E. coli [2]
1 | O=[N+]([O-])c1ccc(OP(=O)(O)Oc2ccc([N+](=O)[O-])cc2)cc1 [bis-pNPP, bis p-nitrophenylphosphate] | PhoD and PhoX1 hydrolyzed all the pNPP derivatives (pNPP, bis-pNPP, and TpNPP) | the activity of PhoD was higher for bis-pNPP diester
2 | O=[N+]([O-])c1ccc(OP(=O)(O)O)cc1 [pNPP, p-nitrophenylphosphate] | the activity of PhoX1 was higher for monoester | PhoD and PhoX1 hydrolyzed all the pNPP derivatives (pNPP, bis-pNPP, and TpNPP)
